How the values were obtained:
[1] = test system: serum cytokines (IL-1α, IL-4, IFN-γ, IL-6); assay: Serum cytokine measurement (MILLIPLEX/Luminex) in ConA immune-mediated hepatitis mice; assay type: in vivo, C57Bl/6 mice; details: oral, daily for 5 days, ConA-injected mice; for serum IL-1a: control group A 206.5; for serum IL-6: control group A 11768
Experimental: Male C57Bl/6 mice (12 weeks old) were obtained from Harlan Laboratories (Jerusalem, Israel) and maintained in the Animal Core of the Hadassah-Hebrew University Medical School. Mice were kept at 11-12 weeks of age and maintained in the Animal Core of the Hadassah-Hebrew University Medical School. All mice were administered standard laboratory chow and water ad libitum and kept in a 12-hour light/dark cycle. All experiments were performed in accordance with the guidelines of the Hebrew University-Hadassah Institutional Committee for Care and Use of Laboratory Animals (IACUC protocol number: MD-16-14986-3).
Four groups of mice (n=4) were studied. Mice in all groups were injected with Concanavalin A (Con A, […]). Mice in control group A were treated with PBS. Mice in group B were orally administered 6 mg of GC, per mouse daily for 5 days prior to ConA injection.
Cytokine assessment was performed by MILLIPLEX® Analytes (EMD Millipore Corporation, Missouri 63304 U.S.A.) based on the Luminex xMAP® technology for performing immunoassays on the surface of fluorescent-coded magnetic beads MagPlex®-C microspheres. Acquiring and analyzing the data were performed using the Luminex analyzer (MAGPIX®) software. Cytokines assessment was measured by mean fluorescence intensity (MFI).

[2] = test system: immune-mediated liver injury; assay: Serum liver enzymes (ALT, AST) in ConA immune-mediated hepatitis mice; assay type: in vivo, C57Bl/6 mice; details: oral, daily for 5 days, ConA-injected mice; for AST levels: control group A 9140; for ALT levels: control group A 24040
Experimental: Male C57Bl/6 mice (12 weeks old) were obtained from Harlan Laboratories (Jerusalem, Israel) and maintained in the Animal Core of the Hadassah-Hebrew University Medical School. Mice were kept at 11-12 weeks of age and maintained in the Animal Core of the Hadassah-Hebrew University Medical School. All mice were administered standard laboratory chow and water ad libitum and kept in a 12-hour light/dark cycle. All experiments were performed in accordance with the guidelines of the Hebrew University-Hadassah Institutional Committee for Care and Use of Laboratory Animals (IACUC protocol number: MD-16-14986-3). Four groups of mice (n=4) were studied. Mice in all groups were injected with Concanavalin A (Con A, […]). Mice in control group A were treated with PBS. Mice in group B were orally administered 6 mg of GC, per mouse daily for 5 days prior to ConA injection. […] Serum aspartate aminotransferase (AST) and alanine aminotransferase (ALT) levels were determined with an automatic analyzer on all mice in all groups.

[3] = test system: type 3 neuropathic GD; details: high doses, cited from earlier work
[4] = test system: non-neuronopathic form of GD; details: patients with non-neuronopathic GD; cited from earlier work
[5] = test system: glucosylceramidase; details: fibroblasts from healthy controls, Gaucher patients, heterozygous GBA mutation with and without Parkinson's disease; cited from earlier work
[6] = test system: alpha-synuclein; details: neuroblastoma line engineered to overexpress alpha-synuclein; cited from earlier work

Compound	IFN-γ change (in words) [1]	serum IL-1a [1]	serum IL-6 [1]	AST levels [2]	ALT levels [2]	subjective-functional scores and objective scores (VEP, ocular movements) ([3]; 5 individuals with type 3 neuropathic GD)	GCase activity in lymphocytes ([3]; type 3 neuropathic GD patients)	clinical outcome of ambroxol treatment [4]	glucosylceramidase activity [5]	markers of oxidative stress [5]	alpha-synuclein levels [6]	IFN-γ ([1]; control group A 643)
Nc1c(Br)cc(Br)cc1CN[C@H]1CC[C@H](O)CC1 [Ambroxol, trans-4-(2-Amino-3,5-dibrombenzylamino)-cyclohexanol]	did not show any decrease	131 pg/mL	9504 pg/mL	8516 IU	16455 IU	substantial clinical improvement	Increased	disease stability	increased	reduced	reduces	
B-glucosylceramide [GC]		48 pg/mL	984 pg/mL	2939 IU	4198 IU							36 pg/mL

From patent US20190254992A1, “COMBINATIONS OF BETA-GLYCOLIPIDES AND 4-[(2-AMINO-3,5-DIBROMOPHENYL)METHYLAMINO]CYCLOHEXAN-1-OL, COMPOSITIONS AND USES THEREOF IN THE TREATMENT OF DISORDERS ASSOCIATED WITH PROTEIN MISFOLDING AND PROTEIN AGGREGATIONS” (HADASIT MEDICAL RESEARCH SERVICES & DEVELOPMENT LIMITED, priority 2016, published 2019)
